This is an account of results in US11020405B2, “Method for prevention or treatment of diabetic complications” (KANGWON NATIONAL UNIVERSITY UNIVERSITY-INDUSTRY COOPERATION …, priority 2017, dated 2021).

The test system of data set [1] is TGase. The data set can be described thus: Analysis of TGase activity in retinas of diabetic mouse model. In kind it is in vivo, C57BL/6 mice. Particulars: intravitreal 2 μL of 2 mM midazolam, 2 μM cystamine or 500 mM MDC (FIGS. 14, 15). The protocol:
6-week-old male C57BL/6 mice (DBL, EumSeong, Korea) were administered with streptozotocin (Sigma-Aldrich) dissolved in a 100 mM citrate buffer (pH 4.5) through intraperitoneal injection in an amount of 150 mg each per kg of mouse weight to give diabetic mouse models. In the diabetic mouse models, the blood glucose level was 19 mM or more when not fasting, and polyuria and diabetes, considered signs of diabetes, were observed. […]
48 μL of 100 mM 5-(biotinamido)pentylamine was injected into the left ventricle of each of normal mice (Normal), midazolam-administered normal mice (Midazolam), diabetic mice (Diabetic), midazolam-administered diabetic mice (Diabetic+Midazolam), flumazenil- and midazolam-administered diabetic mice (Diabetic+flumazenil+Midazolam), cystamine-administered diabetic mice (Diabetic+cystamine) and MDC-administered diabetic mice (Diabetic+MDC) and circulated for 10 min, after which cervical dislocation was performed, and the eyeballs were extracted, fixed with 4% paraformaldehyde for 45 min, incised and subjected to permeation treatment for 30 min. The obtained retinal samples were incubated with a blocking solution for 30 min, treated with FITC-conjugated streptavidin (1:200, v/v), stained for 1 hr, and measured using confocal microscopy. […]

The nature of data set [2]: Body weight and blood glucose monitoring in diabetic mice. In kind it is in vivo, C57BL/6 mice. The protocol:
FIGS. 19A and 19B show the preventive effects of midazolam against hyperglycemia-induced endothelial apoptosis in the aortic endothelium of diabetic mice. Six-week-old male C57BL/6 mice were administered with streptozotocin (150 mg/kg body weight) to give diabetic mouse models. One week after streptozotocin injection, diabetic mice were administered midazolam (10 mg/kg) by intraperitoneal injection daily for 14 days. The body weight of mice were measure in normal (20.7±0.1 g), diabetic (17.1±0.1 g), and midazolam supplemented diabetic mice (17.0±0.3 g). Blood glucose levels were also monitored in normal (124.0±12.0 mg/dL), diabetic (509.0±1.0 mg/dL), and midazolam supplemented diabetic mice (515.7±3.4 mg/dL). Aorta of mice were dissected and cut longitudinally to expose the endothelium. And then aortic segments were fixed for 15 min with 1% (w/v) paraformaldehyde in PBS, followed by treatment for 30 min with 70% (v/v) ethanol on ice. Apoptotic cells were stained by terminal deoxynucleotidyl transferase dUTP nick end labeling (TUNEL) with nuclear counterstaining with DAPI and visualized by confocal microscopy in the aortic endothelium. Representative images of endothelial apoptosis in aorta are shown in additional FIG. 19A. Scale bar, 100 μm. The results of endothelial apoptosis quantitatively analyzed by measurement of TUNEL staining in the aorta are shown in additional FIG. 19B (n=4 for normal and diabetic, n=6 for diabetic+Midazolam).
FIGS. 20A and 20B show the preventive effects of midazolam against hyperglycemia-induced renal vascular leakage in diabetic mice. Six-week-old male C57BL/6 mice were administered with streptozotocin (150 mg/kg body weight) to give diabetic mouse models. Two weeks after streptozotocin injection, diabetic mice were administered 10 mg/kg midazolam by intraperitoneal injection daily for 2 days, and vascular leakage was investigated. The body weight of mice were measure in normal (19.9±0.3 g), diabetic (17.7±0.3 g), and midazolam supplemented diabetic mice (17.7±0.3 g). Blood glucose levels were also monitored in normal (123.5±6.5 mg/dL), diabetic (505.0±89.0 mg/dL), and midazolam supplemented diabetic mice (500.3±63.3 mg/dL). The mice were anesthetized with 3% isoflurane, and 1.25 mg of FITC-dextran was injected into the right ventricle of each mouse and allowed to circulate for 5 min. […] The results of vascular leakage quantitatively analyzed by measuring the fluorescence intensity of FITC-dextran in the kidneys are shown in additional FIG. 20B. […]
FIGS. 21A and 21B show the preventive effects of midazolam against hyperglycemia-induced pulmonary vascular leakage in diabetic mice. […] Blood glucose levels were also monitored in normal (123.5±6.5 mg/dL), diabetic (505.0±89.0 mg/dL), and midazolam supplemented diabetic mice (500.3±63.3 mg/dL). […]

Regarding `Cc1ncc2n1-c1ccc(Cl)cc1C(c1ccccc1F)=NC2` [midazolam], the “TGase activity in retina compared to normal mice” value in data set [1] is “an increase in TGase activation was suppressed”. Besides, the body weight in data set [2] (Test Example 15: midazolam supplemented diabetic mice, 10 mg/kg intraperitoneal daily for 14 days) was 17.0 ± 0.3 g; in data set [2] (Test Example 16: midazolam supplemented diabetic mice, 10 mg/kg intraperitoneal daily for 2 days) it was 17.7 ± 0.3 g; in data set [2] (Test Example 17: midazolam supplemented diabetic mice, 10 mg/kg intraperitoneal daily for 2 days), 17.6 ± 0.3 g. In data set [2] (Test Example 18: midazolam supplemented diabetic mice, 10 mg/kg intraperitoneal daily for 14 days, B16F10 cells), this compound yielded a weight of mice of 16.2 ± 0.5 g.
